Assay results: patent US20250381155A1, “USE OF 2-HYDROXYBENZYLAMINE IN THE TREATMENT AND PREVENTION OF PULMONARY HYPERTENSION” (Vanderbilt University, priority 2016, published 2025)
“Also recorded” adds a separate entry of the source.

Tests used:
[1] = tested on: BMPR2 mutant PMVEC; experiment: Extracellular glutamine to glucose flux ratio in BMPR2 mutant PMVEC; format: cell-based; details: low-dose chetomin
Experimental: (§1) The present inventors used previously characterized WT and BMPR2 mutant (BMPR2^R899X) pulmonary microvascular endothelial cells isolated from conditionally immortalized murine lines generated on the ImmortoMouse background,^20 and WT and BMPR2 mutant PMVECs from a parent immortalized human line stably expressing either a WT or BMPR2 mutant construct transfected into the parent line and maintained under selection with G418S. […]
(§2) Glucose and lactate levels were measured using the YSI 2300 Stat Glucose and Lactate Analyzer (Yellow Springs, OH). High performance liquid chromatography (HPLC) was used to quantify amino acid concentrations, with norvaline as an internal standard. […] Flux rates were calculated using the ETA software package.^22
(§3) The present inventors next wished to determine the molecular events downstream from BMPR2 mutation that contribute to glutamine reliance. […] Then WT and BMPR2 mutant PMVEC was treated with chetomin, a pharmacologic inhibitor of HIF, and assessed glucose and glutamine uptake by quantifying the extracellular flux ratio of glutamine to glucose. […]

[2] = tested on: WT PMVEC; experiment: Extracellular glutamine to glucose flux ratio in WT PMVEC; format: cell-based; details: low-dose chetomin
Experimental: as §1, §2, §3

[3] = tested on: SIRT3; experiment: Lysine acetylation and SIRT3 content of the mitochondrial proteome from treated BMPR2^R899X mice (Western blot); format: in vivo; details: 1 g/L 2HOBA in drinking water
Experimental: (§4) To assess mitochondrial respiration in cultured PMVECs, cells were seeded in growth media in a 96-well plate from Seahorse Biosciences (Bilerica, MA) at a seeding density of 50,000 live cells per well. The following day, cells were washed and placed in Seahorse Assay Media supplemented with specific substrates (1 gm/L glucose, 2 mM L-glutamine). After equilibration, oxygen consumption rates were measured on a Seahorse XFe96 analyzer using the Mito Stress Test protocol. For mitochondrial protein measurements, mitochondria were isolated from fresh murine liver tissue as previously described.^24
(§5) All animal studies were approved by the Vanderbilt IACUC. Male and female FVB/N mice were 10-16 weeks of age. BMPR2^R899X mice were generated and maintained as previously described.^24,25 For 2HOBA studies, 1 gm/L was administered in the drinking water, with water bottles protected from light and water changes every 2-3 days.
Because sirtuin expression and activity is tightly regulated by substrate availability, nutrient intake, physical activity, and interacting signaling pathways operating between organ systems, the role of SIRT3 in BMPR2-mediated PAH is best studied in a murine model system. […] The mitochondrial proteome was assessed for acetylation of lysine residues, with SIRT3 inactivation leading to lysine hyperacetylation. […]

[4] = tested on: BMPR2^R899X mice; experiment: Glutamine synthetase in liver mitochondria and circulating glutamine in treated BMPR2^R899X mice; format: in vivo
Experimental: as §4, §5
(§6) Having shown that impaired BMPR2 function is associated with loss of SIRT3 function, and that this can be prevented with 2HOBA treatment to scavenge damaging lipid peroxidation products, the present inventors next wished to assess the in vivo metabolic dysfunction downstream from BMPR2 mutation, the relationship to PAH, and the effect of 2HOBA treatment. […]

[5] = tested on: WT mice; experiment: Glutamine synthetase in liver mitochondria of treated WT mice; format: in vivo; details: 2HOBA treatment
Experimental: as §4, §5, §6

[6] = tested on: BMPR2^R899X mice; experiment: Development of PAH in BMPR2^R899X mice (total pulmonary resistance, cardiac output by echocardiography, invasive RVSP); format: in vivo
Experimental: as §5
Echocardiography was performed on anesthetized mice (isoflurane anesthesia) to determine cardiac output. Right ventricular systolic pressure (RVSP) was invasively measured as described, using bromoethanol as the anesthetic.^24,25
All statistics were performed using GraphPad Prism 6.0 or Microsoft Excel unless otherwise specified. For animal experiments, sample sizes were chosen based upon previous experiments with approximately 80% of transgenic animals showing RVSP>30 mm Hg. Animals were randomly assigned to treatment groups by cage. For all measurements, investigators were blind to treatments and genotype until data analysis. Data were analyzed using two-tailed t-test, or two-way ANOVA with Tukey's post-test, as indicated. Significance was set at α<0.05 after correction for multiple comparisons.
Having shown that impaired BMPR2 function is associated with loss of SIRT3 function, and that this can be prevented with 2HOBA treatment to scavenge damaging lipid peroxidation products, the present inventors next wished to assess the in vivo metabolic dysfunction downstream from BMPR2 mutation, the relationship to PAH, and the effect of 2HOBA treatment. The present inventors hypothesized that 2HOBA would prevent the development of PAH in BMPR2^R899X mice and would have a beneficial modulatory effect on glutamine metabolism in vivo. Expression of the BMPR2^R899X allele was sufficient to drive upregulation of glutamine synthetase in skeletal muscle (FIG. 10) and in liver mitochondria (FIG. 7A) compared to WT.

[7] = Long-term safety, continuous dosing in mice; format: in vivo; details: over 12 months of continuous dosing in mice
[8] = pre-clinical animal studies; cited from earlier work
[9] = 2HOBA vs vehicle-treated mutants

SMILES | glutamine to glucose flux ratio [1] | glutamine to glucose flux ratio [2] | total SIRT3 content in the mitochondria [3] | lysine acetylation in the mitochondrial proteome ([3]; Western diet, isolated mitochondria) | circulating (plasma) glutamine ([4]; 2HOBA-treated BMPR2^R899X mice compared to 2HOBA-treated WT mice) | glutamine synthetase in liver mitochondria ([4]; BMPR2^R899X mice, 2HOBA treatment) | glutamine synthetase in liver mitochondrial fraction [5] | development of pulmonary hypertension as measured by total pulmonary resistance ([6]; 2HOBA compared to vehicle-treated mice) | cardiac output [6, 9] | right ventricular systolic pressure (RVSP) [6, 9] | toxicity [7] | safety profile [8]
CN1C(=O)[C@]2(Cc3cn([C@]45C[C@@]67SS[C@@](CO)(C(=O)N6[C@H]4Nc4ccccc45)N(C)C7=O)c4ccccc34)SS[C@@]1(CO)C(=O)N2C [chetomin] | significantly reduced | no effect; also recorded: essentially unaffected | – | – | – | – | – | – | – | – | – | –
NCc1ccccc1O [2HOBA, 2-hydroxybenzylamine] | – | – | without affecting | significantly reduced; also recorded: normalized | significantly lower; also recorded: significantly reduces | reduced | not substantially | prevented the development of pulmonary hypertension; also recorded: to a level statistically indistinguishable from WT | modestly increased; also recorded: trends toward improved | decreased; also recorded: trends toward a decrease | no significant toxicity | excellent safety profile
